{
  "source": "patent US20240335505A1",
  "about": "“PRODUCTS AND METHODS FOR PROMOTING MYOGENESIS” (Ecole Polytechnique Federale de Lausanne (EPFL), priority 2021, published 2024)",
  "key": {"C. elegans": {"test_system": "C. elegans", "experiment": "Muscle function and morphology in aged C. elegans", "type": "in vivo", "details": "day 15 of adulthood; verteporfin 10 uM from L4 stage; egl-44 RNAi by maternal treatment (FIG. 19A-F)", "protocol": "Transgenic Caenorhabditis Elegans. C. elegans strains were cultured at 20° C. on nematode growth medium (NGM) agar plates seeded with E. coli strain OP50 unless stated otherwise. Strains used in this study were the wild-type Bristol N2 and COP2054. N2 strain was provided by the Caenorhabditis Genetics Center (University of Minnesota). For RNAi experiments, worms were exposed to egl-44 RNAi or an empty vector control plasmid using maternal treatment to ensure robust knock down of the investigated gene. Verteporfin was dissolved in DMSO, and used at a final concentration of 10 uM. Worms were exposed to verteporfin starting from L4 stage. Verteporfin or DMSO was added to agar before preparing plates. To ensure a permanent exposure to the compound, plates were changed twice a week. The COP2054 worm strain expressing human CYTOR was generated by a custom transgenic service (Knudra Transgenics, Salt Lake City, UT). Briefly, Mosi-mediated Single Copy Insertion (MosSCI) started with the construction of myo3p::CYTOR::tbb2u, where the myo3p promoter and tbb-2 3′-UTR were taken from the N2 genome, and CYTOR was synthesized with codon and intron optimization for C. elegans. […]\nC. […] 45 to 60 worms per condition were manually scored for paralysis after poking. Worms that were unable to respond to any repeated stimulation were scored as dead. […]"}, "Tead1": {"target": "T1, Tead1 (Mus musculus, UniProt P30051)", "T1 construct": "endogenous in cells; host or cells: C2C12 mouse myoblasts (ATCC CRL-1772)", "T1 sequence (P30051 whole entry)": "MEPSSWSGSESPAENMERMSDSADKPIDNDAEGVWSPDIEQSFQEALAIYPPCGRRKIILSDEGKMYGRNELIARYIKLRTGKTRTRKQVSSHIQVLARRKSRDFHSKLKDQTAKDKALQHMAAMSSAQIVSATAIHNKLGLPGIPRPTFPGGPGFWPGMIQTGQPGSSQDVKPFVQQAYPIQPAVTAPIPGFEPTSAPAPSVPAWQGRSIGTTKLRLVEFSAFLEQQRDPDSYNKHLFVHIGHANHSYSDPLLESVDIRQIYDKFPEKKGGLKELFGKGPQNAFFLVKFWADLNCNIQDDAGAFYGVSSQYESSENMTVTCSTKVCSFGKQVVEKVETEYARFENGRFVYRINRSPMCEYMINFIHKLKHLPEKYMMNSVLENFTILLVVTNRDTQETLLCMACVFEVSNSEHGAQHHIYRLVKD", "experiment": "C2C12 myoblast differentiation after disruption of Tead1 function (siRNA or Verteporfin)", "type": "cell-based", "protocol": "Cell culture. The C2C12 mouse myoblast cell line was obtained from the American Type Culture Collection (CRL-1772TM). C2C12 and HEK293T cells (CRL-3216™, ATCCR) were cultured in growth medium consisting of Dulbecco's modified Eagle's medium (Gibco, 41966-029), 20% Fetal Bovine Serum (Gibco, 10270-106) and 100 U/mL penicillin and […] streptomycin (Gibco, 15140-122). Differentiation of Cytor/CYTOR overexpressing cells or Tead1 silenced cells were assessed in culture medium. Human skeletal muscle myoblasts (Lonza, Switzerland) were cultured in DMEM/F12 Glutamax (31331093, Gibco) supplemented with 20% FBS (Gibco, 10270-106) and 1% penicillin/streptomycin (15140-122, Gibco). Human skeletal muscle myoblasts from young, old and DMD donors were obtained from the Groupement Hospitalier Est (CBC BioTec, Centre de Ressources Biologique) and cultured in Ham F10 medium (11550043, Thermo Fisher) with 12% FBS (10270-106, Gibco) and 1% penicillin/streptomycin (Gibco, 15140-122). Muscle cell differentiation was achieved by substituting FBS with 2% horse serum (Gibco, 16050-122). For detachment Trypsin-EDTA 0.05% (25300-062, Gibco) was used for all cell lines. All cells were maintained at 37° C. and 5% CO2. Cell lines were continuously tested for mycoplasma contamination.\nCell transfection and transduction. Cell transfections were done using TransiT (Mirus) according to the manufacturer's protocol with a 3:1 ratio of transfection agent to DNA. 24 well plates were transfected with 150 ng DNA, 12 well plates with 300 ng DNA, and 6 well plates with 1 ug DNA. To transfect 25 nM GapmeR or siRNA in C2C12, LipofectamineR RNAiMAX (Thermo Scientific, 13778100) was used following manufacturer's instructions. […]\nImmunocytochemistry. […] The myofusion index was calculated as the ratio of nuclei within myotubes to total nuclei. Myotube diameter was measured for 10 randomly chosen myotubes per image. Myotube area was calculated as the total area covered by myotubes. […]"}},
  "data": [
    {"substance": "Verteporfin", "values": [
      {"measurement": "function and morphology of aged C. elegans (movement, speed, activity, paralysis, death)", "setting": "C. elegans", "result": "phenocopied the beneficial effect of Cytor"},
      {"measurement": "myotube area", "setting": "Tead1; C2C12 myoblasts (FIG. 18B)", "result": "increase myotube area"},
      {"measurement": "myofusion", "setting": "Tead1; C2C12 myoblasts (FIG. 18C)", "result": "increase"},
      {"measurement": "expression of type II myosin isoforms", "setting": "Tead1; C2C12 myoblasts (FIG. 18D)", "result": "induce the expression of type II"}
    ]}
  ]
}
